# Entries after “also recorded” stand apart in the source; their conditions may differ. Read-outs that look alike come from different tables or passages of the source.
# What was measured:
# [1] = tested on: T cell proliferation in mouse spleen cell mixed lymphocyte cultures; test: Mixed Lymphocyte Reaction (MLR) assay; type: cell-based, mouse (Balb/c responder, C57B1/6 stimulator)
# From the text: The pharmacologic assays performed to determine the immunomodulatory effects of the experimental compounds in vitro include the Mixed Lymphocyte Reaction (MLR) and the ConA blastogenesis assay. These assays were used to determine the inhibitory effects of the compounds of the invention on T lymphocyte activation and proliferation. Since inflammation at the cellular level is characterized by T lymphocyte recruitment, activation and proliferation, these assays are appropriate to use as screens for novel compounds having therapeutic potential in the treatment of disorders in which inflammatory mechanisms are involved.
# The MLR is a classical assay used to measure T cell function by studying the proliferative response of T cells which are activated in vitro by genetically disparate stimulator cells. This is accomplished by co-culturing spleen cells from two different strains of mice. Splenic T cell proliferation occurs as a result of cellular activation signals generated by the ongoing cellular interactions.
# Balb/c mice were euthanised by cervical dislocation and their spleens removed. Single cell suspensions of the spleens were prepared in culture medium (hepes buffered RPMI-1640 supplemented with 10% fetal calf serum, 2mM glutamine, 500 units penicillin/ streptomycin, and 4×10^-5 M 2-mercaptoethanol) using a Teflon pestle. The cells were centrifuged at 1500 rpm and the pellets resuspended in ACT (0.15M tris, 0.14M ammonium chloride, pH 7.2) in order to lyse the red blood cells. After a 5 minute incubation in a 37 C. waterbath, the cells were resuspended in culture medium and counted. C57B1/6 spleen cells which were used as stimulator cells, were also prepared by this method. The stimulator cells were treated with 100 ug/ml of mitomycin c for 1 hour at 37 C. (to inhibit stimulatory cell proliferation) and were then washed 5 times in culture medium. The proliferative responses were measured by culturing 2.5×10^5 responder cells with 5×10^5 stimulatory cells in 96 well microtiter plates in the presence or absence of various doses of test compounds or vehicle (DMSO). Syngeneic control cultures using mitomycin c treated Balb/c spleen cells as stimulator cells were also run. All cultures were run in triplicate.
# Solutions of compounds of the present invention in DMSO were prepared at a stock concentration of 120 Mm. Dilutions were made in culture medium to the following concentrations: 3, 10, 30, 100, and 300 uM. The vehicle (DMSO) was used as a negative control.
# After incubation of for 5 days at 37 C. with 5% CO2, the amount of cell proliferation was measured by adding 20 ul of MTT (3-[4,5-dimethylthiazol-2-yl]-2,5diphenyl-tetrazolium bromide) (10 mg/ml in phosphate buffered saline) to each well. Plates were incubated for 4 hours at 37 C., after which 180 ul of 10% sodium dodecyl sulphate in phosphate buffered saline was added. After an overnight incubation, the optical density (OD) of each well was read on a Molecular Devices microplate reader at 570-650 nm. The results were determined by calculating the difference between the means of the allogeneic cultures and the means of the syngenic cultures for each test article concentration. Differences of the test article groups were compared to the control group and the percent change from the control was determined.
# [2] = tested on: T lymphocytes (normal mouse spleen cells) stimulated with ConA; test: Mouse Spleen Cell ConA Blastogenesis Assay; type: cell-based, mouse (C57Bl/6); settings: for inhibition at 0.01 µg/mL / inhibition at 0.1 µg/mL / inhibition at 1 µg/mL / inhibition at 2.5 µg/mL / inhibition at 10 µg/mL / inhibition at 25 µg/mL / inhibition at 100 µg/mL / inhibition at 0.001 µg/mL: Mus musculus, T-lymphocyte
# From the text: It is well known that several plant lectins, when cultured in vitro with lymphocytes, stimulate cellular activation and proliferation. Concanavolin, (ConA) selectively stimulates the blastogenic response of T lymphocytes.
# Six to 8 week old male C57Bl/6 mice were purchased from Harlan Sprague Dawley (Indianapolis, Ind.).
# Spleens were removed and were homogenized to obtain a single cell suspension. Erythrocytes were lysed by hypotonic shock. Upon determination of the viability and concentration of the lymphoid cells, they were adjusted to 4×10^6 cells/ml in culture medium (RPMI-1640) supplemented with 10% fetal bovine serum; 100 ug/ml streptomycin; 100 U/ml penicillin, 0.2M hepes buffer; 5×10^-5 M 2-mercaptoethanol and 2 mM glutamine). seeded into microtiter plate wells at 2×10^5 cells/0.050 ml/well. To these cultures were added various doses of experimental compounds and ConA at a final concentration of 4 or 1 ug/ml. Control cultures consisted of cells, ConA and culture medium containing the vehicle, DMSO only. […] For the testing of the methyl 1,3-O-isopropylidene-6-O-n-heptyl-α-D-fructofuranoside compound indomethacin and NDGA were used as controls. All cultures were run in triplicate.
# Solutions of compounds of the invention in DMSO were prepared and dilutions were made in culture medium. Assay concentrations were either: 1, 2.5, 10, 25, 100, 300 and 750 ug/ml or 0.001, 0.01, 0.1, 1, 2.5, 10, 25 and 100 ug/ml.
# Cultures were incubated for 3 days at 37° C. in a humidified atmosphere of 5% of CO2 in air. For the last 18 hours of culture, 1 uCi of ^3 H-thymidine was also incubated in each well. The cells were precipitated by a multi-channel harvester. The amount of ^3 H-thymidine incorporated by the cultures, as a measure of cell proliferation, was measured in a liquid scintillation counter. The amount of radioactive incorporation is proportional to the amount of cellular proliferation in individual wells. The students T test was used to determine the significance of the difference between experimental and control values.
# [3] = ConA 1 ug/ml, 0.01 ug/ml, read-out: % Change from Control (Table II)
# [4] = ConA 1 ug/ml, compound 0.01 ug/ml, read-out: % change from control, ConA blastogenic response
# [5] = ConA 1 ug/ml, compound 0.1 ug/ml, read-out: % change from control, ConA blastogenic response
# [6] = ConA 1 ug/ml, compound 1 ug/ml, read-out: % change from control, ConA blastogenic response
# [7] = ConA 1 ug/ml, compound 2.5 ug/ml, read-out: % change from control, ConA blastogenic response
# [8] = ConA 1 ug/ml, compound 10 ug/ml, read-out: % change from control, ConA blastogenic response
# [9] = ConA 1 ug/ml, compound 25 ug/ml, read-out: % change from control, ConA blastogenic response
# [10] = ConA 1 ug/ml, compound 100 ug/ml, read-out: % change from control, ConA blastogenic response
# [11] = ConA 4 ug/ml, 0.01 ug/ml, read-out: % Change from Control (Table II)
# [12] = ConA 4 ug/ml, compound 0.01 ug/ml, read-out: % change from control, ConA blastogenic response
# [13] = ConA 4 ug/ml, compound 0.1 ug/ml, read-out: % change from control, ConA blastogenic response
# [14] = ConA 4 ug/ml, compound 1 ug/ml, read-out: % change from control, ConA blastogenic response
# [15] = ConA 4 ug/ml, compound 2.5 ug/ml, read-out: % change from control, ConA blastogenic response
# [16] = ConA 4 ug/ml, compound 10 ug/ml, read-out: % change from control, ConA blastogenic response
# [17] = ConA 4 ug/ml, compound 25 ug/ml, read-out: % change from control, ConA blastogenic response
# [18] = ConA 4 ug/ml, compound 100 ug/ml, read-out: % change from control, ConA blastogenic response
Structure (SMILES),"inhibition at 0.01 µg/mL [2, 3]","inhibition at 0.01 µg/mL [2, 4]","inhibition at 0.1 µg/mL [2, 5]","inhibition at 1 µg/mL [2, 6]","inhibition at 2.5 µg/mL [2, 7]","inhibition at 10 µg/mL [2, 8]","inhibition at 25 µg/mL [2, 9]","inhibition at 100 µg/mL [2, 10]","inhibition at 0.01 µg/mL [2, 11]","inhibition at 0.01 µg/mL [2, 12]","inhibition at 0.1 µg/mL [2, 13]","inhibition at 1 µg/mL [2, 14]","inhibition at 2.5 µg/mL [2, 15]","inhibition at 10 µg/mL [2, 16]","inhibition at 25 µg/mL [2, 17]","inhibition at 100 µg/mL [2, 18]",other results
"CCCCCCCCCCCCCCCOCC(O)C1OC2OC(C)(C)OC2C1O [IIId, 1,2-O-Isopropylidene-6-O-pentadecyl-α-D-glucofuranose]",–,–,–,–,–,–,–,–,–,–,–,–,–,–,–,–,"Mean O.D. Allogenic ([1]; 3 um): 0.210 O.D.; Mean O.D. Syngeneic ([1]; 3 um): 0.138 O.D.; Mean O.D. Allogenic ([1]; 10 um): 0.197 O.D.; Mean O.D. Syngeneic ([1]; 10 um): 0.128 O.D.; Mean O.D. Allogenic ([1]; 30 um): 0.104 O.D.; Mean O.D. Syngeneic ([1]; 30 um): 0.032 O.D.; Mean O.D. Allogenic ([1]; 100 um): 0.021 O.D.; Mean O.D. Syngeneic ([1]; 100 um): 0.019 O.D.; Mean O.D. Allogenic ([1]; 300 um): 0.015 O.D.; inhibition at 3 µM ([1]; Mus musculus, Lymphocyte, 3 um, read-out: % Change From Control, MLR): 13%; inhibition at 10 µM ([1]; Mus musculus, Lymphocyte, 10 um, read-out: % Change From Control, MLR): 17%; inhibition at 30 µM ([1]; Mus musculus, Lymphocyte, 30 um, read-out: % Change From Control, MLR): 13%; inhibition at 100 µM ([1]; Mus musculus, Lymphocyte, 100 um, read-out: % Change From Control, MLR): 98%"
"CCCCCCCC(=O)OC[C@H]1O[C@@]2(OC)COC(C)(C)O[C@H]2[C@@H]1O [Ii, methyl 1,3-O-isopropylidene-6-O-octanoyl-α-D-fructofuranoside]",-11%,-7%,-21%,-52%,-62%,-13%,-41%,27%,-28%,-37%,-28%,-17%,-22%,1%,-7%,47%,effect on ConA T lymphocyte proliferation in words [2]: less potent inhibitor of the mitogen induced T lymphocyte proliferative response; also recorded: significant inhibition observed at all dose levels on the 1 ug/ml ConA cultures
"CCCCCCCC(=O)OC[C@H]1O[C@@]2(OC)COC(C)(C)O[C@H]2[C@@H]1OC(=O)CCCCCCC [Ij, methyl 1,3-O-isopropylidene-4,6-di-O-octanoyl-α-D-fructofuranoside]",60%,100%,100%,100%,100%,100%,100%,100%,3%,-42%,12%,-9%,15%,43%,79%,92%,–
"CCCCCCCO[C@@H]1[C@@H](CO)O[C@@]2(CO)OC(C)(C)O[C@@H]12 [Ik, 2,3-O-isopropylidene-4-O-heptyl-β-D-fructofuranose]",–,-8%,3%,19%,21%,79%,99%,100%,–,-14%,8%,35%,51%,91%,99%,100%,"Blastogenic response of normal spleen cells to Con-A ([2]; ConA 1 ug/ml, compound 0.001 ug/ml): 139.5 ± 4.0 × 10^-3 cpm; Blastogenic response of normal spleen cells to Con-A ([2]; ConA 1 ug/ml, compound 0.01 ug/ml): 146.4 ± 5.2 × 10^-3 cpm; Blastogenic response of normal spleen cells to Con-A ([2]; ConA 1 ug/ml, compound 0.1 ug/ml): 145 ± 6.9 × 10^-3 cpm; Blastogenic response of normal spleen cells to Con-A ([2]; ConA 1 ug/ml, compound 1 ug/ml): 119.1 ± 3.3 × 10^-3 cpm; Blastogenic response of normal spleen cells to Con-A ([2]; ConA 1 ug/ml, compound 2.5 ug/ml): 98.5 ± 7.0 × 10^-3 cpm; Blastogenic response of normal spleen cells to Con-A ([2]; ConA 1 ug/ml, compound 25 ug/ml): 1.4 ± 0.2 × 10^-3 cpm; Blastogenic response of normal spleen cells to Con-A ([2]; ConA 1 ug/ml, compound 100 ug/ml): 0.3 ± 0.1 × 10^-3 cpm; Blastogenic response of normal spleen cells to Con-A ([2]; ConA 4 ug/ml, compound 0.001 ug/ml): 167.1 ± 16.7 × 10^-3 cpm; Blastogenic response of normal spleen cells to Con-A ([2]; ConA 4 ug/ml, compound 0.01 ug/ml): 212.6 ± 16.3 × 10^-3 cpm; Blastogenic response of normal spleen cells to Con-A ([2]; ConA 4 ug/ml, compound 0.1 ug/ml): 183.6 ± 10.4 × 10^-3 cpm; Blastogenic response of normal spleen cells to Con-A ([2]; ConA 4 ug/ml, compound 1 ug/ml): 135.3 ± 10.8 × 10^-3 cpm; Blastogenic response of normal spleen cells to Con-A ([2]; ConA 4 ug/ml, compound 2.5 ug/ml): 90.4 ± 7.8 × 10^-3 cpm; Blastogenic response of normal spleen cells to Con-A ([2]; ConA 4 ug/ml, compound 10 ug/ml): 18.4 ± 0.2 × 10^-3 cpm; Blastogenic response of normal spleen cells to Con-A ([2]; ConA 4 ug/ml, compound 25 ug/ml): 2.5 ± 0.4 × 10^-3 cpm; Blastogenic response of normal spleen cells to Con-A ([2]; ConA 4 ug/ml, compound 100 ug/ml): 0.4 ± 0.1 × 10^-3 cpm; inhibition at 0.001 µg/mL ([2]; ConA 1 ug/ml, compound 0.001 ug/ml, read-out: % change from control, ConA blastogenic response): -11%; inhibition at 0.001 µg/mL ([2]; ConA 4 ug/ml, compound 0.001 ug/ml, read-out: % change from control, ConA blastogenic response): 8%"
